Laboratory results from patent US12661370B2, “Amino acid salts of nicotinic acid ribosides as anti-aging agents” (Jumpstart Fertility Pty Ltd, priority 2018, dated 2026).

Tested on: COV434 cells
Test: NAD cell assay (NAD cycling method)
Assay type: cell-based
Settings: cellular NAD level, 200 uM for 4 hr, normalised to protein, mole per mole comparison with NaR parent
Description: NAD levels were assayed based on the NAD cycling method of Zhu and Rand, PLoS One (2012), herein incorporated by reference. COV434 cells were maintained in 6 well plates and treated with the indicated compounds at a concentration of 200 uM for 4 hr. Media was removed, plates were washed in cold PBS and cells were scraped down in NAD extraction buffer containing 10 mM nicotinamide, 50 mM Tris HCl, 0.1% Triton X-100. Cells were homogenised by sonication for 5 seconds, and samples were centrifuged at 7,000 g for 5 min at 4 degrees. Aliquots were taken for later protein assay, and samples were then passed through 10 kDa amicon filters at 14,000 g, 30 min at 4 degrees to remove proteins from the sample. Each sample was measured in technical triplicate, with 25 μL sample added to 100 μL ADH cycling mix (0.2 mg/ml alcohol dehydrogenase enzyme, 2% ethanol, 100 mM Tris pH 8.5). Samples were allowed to cycle for 10 min at room temperature, followed by 50 μL addition of an MTT/PMS solution (0.1 mM phenazine methosulfate, 0.8 mM 3(4,5-Dimethylthiazol-2-yl)-2,5-diphenyltetrazolium bromide), 100 mM Tris-HCl pH 8.5). Plates were then incubated for 15 min and absorbance was measured at 570 nm. NAD concentrations were extrapolated from a standard curve, and normalised to protein concentrations determined by BCA protein assay.
The adjusted fold increase is obtained through a direct comparison on a mole per mole basis between the compared salt and its parent counterpart. In other words, the instant compounds derived from NaR parent molecule will only have their NAD activity level measured against NaR based on the same amount (mole) of salt tested in the cell. For example, the fold increase of compound I-002 is based on the NAD activity observed in a direct comparison for the same amount of mole in the cell and that of the NaR parent. Similarly, the fold increase of i-003 is based on the direct comparison with NaR.

Compound | Fold increase adjusted for MW (compared to parent molecule) [fold]
O=C([O-])c1ccc[n+]([C@@H]2O[C@H](CO)[C@@H](O)[C@H]2O)c1 [NaR, reference compound] | 1.0
(2S,3S)-2-Ammonio-3-methylpentanoate compound with 1-((2R,3R,4S,5R)-3,4-dihydroxy-5-(hydroxymethyl)tetrahydrofuran-2-yl)pyridine-1-ium-3-carboxylate (1:1) [Compound I-002] | 1.34
(S)-2-Ammonio-3-(1H-indol-3-yl)propanoate compound with 1-((2R,3R,4S,5R)-3,4-dihydroxy-5-(hydroxymethyl)tetrahydrofuran-2-yl)pyridine-1-ium-3-carboxylate (1:1) [Compound I-003] | 1.76
